{"source": "patent US20250144120A1", "about": "“COMPOSITIONS AND METHODS FOR TREATING SKIN CONDITIONS” (priority 2023, published 2025)", "origin": "cited, not measured here", "key": {"[1]": {"tested_on": "skin (guinea pigs)"}, "[2]": {"tested_on": "skin (rabbits)"}, "[3]": {"tested_on": "eyes (rabbits)"}, "[4]": {"tested_on": "animal subjects"}}, "data": [{"smiles": "CCCCCCCCCCCCCCCCCCCCC[N+](C)(C)[Si](O)(O)O.[Cl-]", "note": "[Octadecyldimethyltrihydroxysilyl propyl ammonium chloride]", "values": [{"measurement": "skin irritation", "setting": "[1]", "value": "does not irritate"}, {"measurement": "skin irritation", "setting": "[2]", "value": "does not irritate"}, {"measurement": "eye irritation", "setting": "[3]", "value": "does not irritate"}, {"measurement": "LD50 via ingestion", "setting": "[4]; ingestion", "value": "> 5000", "unit": "mg/kg"}, {"measurement": "LD50 via inhalation", "setting": "[4]; inhalation", "value": "> 2", "unit": "mg/L"}]}]}
